# How the values were obtained:
# [1] = system: Jurkat cells; assay: IL-2 secretion assay in CD3/CD28-activated Jurkat cells (AlphaLISA); type: cell-based, human; conditions: Homo sapiens, CD3/CD28 T Cell Activator, 24 h, IL-2 AlphaLISA
# Summary of the method: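 Jurkat cells (50,000/well) preincubated 1 h at 37° C with compound (16-point 1:2 series, final 10 μM to 300 pM) in Opti-MEM, then stimulated with CD3/CD28 activator for 24 h. Supernatant IL-2 read by AlphaLISA; EC50 from 4-parameter logistic fit.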
# [2] = molecular target: T1, Cbl-b (Homo sapiens, UniProt Q13191); assay: Cbl-b probe displacement HTRF binding assay; conditions: 0.4 nM biotinylated Cbl-b, 150 nM BODIPY probe
# T1 construct: biotin (biotinylated)
# T1 sequence (Q13191 whole entry, species assumed): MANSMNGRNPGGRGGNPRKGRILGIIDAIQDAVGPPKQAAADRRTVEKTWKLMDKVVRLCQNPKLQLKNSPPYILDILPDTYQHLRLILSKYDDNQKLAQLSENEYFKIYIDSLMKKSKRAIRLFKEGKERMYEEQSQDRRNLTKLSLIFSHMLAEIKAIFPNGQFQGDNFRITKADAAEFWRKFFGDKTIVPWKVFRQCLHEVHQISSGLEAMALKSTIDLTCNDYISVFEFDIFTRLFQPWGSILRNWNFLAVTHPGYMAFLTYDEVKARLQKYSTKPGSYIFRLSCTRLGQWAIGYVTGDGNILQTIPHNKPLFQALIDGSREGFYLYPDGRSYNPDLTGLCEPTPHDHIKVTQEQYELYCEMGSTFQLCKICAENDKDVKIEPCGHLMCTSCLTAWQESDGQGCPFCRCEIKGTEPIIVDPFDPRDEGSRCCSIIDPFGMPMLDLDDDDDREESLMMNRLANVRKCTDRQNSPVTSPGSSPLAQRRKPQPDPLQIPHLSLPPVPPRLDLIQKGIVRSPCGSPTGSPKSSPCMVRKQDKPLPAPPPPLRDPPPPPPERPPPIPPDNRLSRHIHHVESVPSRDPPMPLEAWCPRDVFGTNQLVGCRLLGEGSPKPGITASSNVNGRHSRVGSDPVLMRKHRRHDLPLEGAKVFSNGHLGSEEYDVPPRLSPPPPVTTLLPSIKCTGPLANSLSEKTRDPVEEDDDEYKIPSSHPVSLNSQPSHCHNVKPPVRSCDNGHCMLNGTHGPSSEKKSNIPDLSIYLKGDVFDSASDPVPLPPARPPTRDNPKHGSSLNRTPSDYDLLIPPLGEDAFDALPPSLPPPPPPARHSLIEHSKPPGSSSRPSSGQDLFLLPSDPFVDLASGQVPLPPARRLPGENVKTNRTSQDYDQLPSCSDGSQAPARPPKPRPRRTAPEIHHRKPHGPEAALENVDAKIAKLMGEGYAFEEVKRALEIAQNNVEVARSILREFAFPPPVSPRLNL
# Summary of the method: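 Biotinylated Cbl-b (0.4 nM) preincubated 60 min at RT with compound (20-point 1:2 series, 10 μM top), then 150 nM BODIPY probe for 15 min, then streptavidin-terbium detection. Buffer: 20 mM Hepes, 150 mM NaCl, 0.01% Triton X-100, 0.5 mM TCEP, 0.01% BSA. Loss of HTRF signal gave IC50 via four-parameter fit.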
EC50 [1] [nM],IC50 [2] [nM],Structure (SMILES)
< 100,< 100,"Cn1cc(C#N)nc1-c1cc(C#N)ccc1-c1cc(C2CC2)nc(-n2cnc3cc(CNC4(C)CCC4)[nH]c3c2=O)c1 [Example 115, 2-[5-cyano-2-[2-cyclopropyl-6-[6-[[(1-methylcyclobutyl)amino]methyl]-4-oxo-5H-pyrrolo[3,2-d]pyrimidin-3-yl]pyridin-4-yl]phenyl]-1-methylimidazole-4-carbonitrile]"
< 100,< 100,"COCCNCc1cc2ncn(-c3cc(-c4ccc(F)cc4-n4nncc4CF)cc(C4CC4)n3)c(=O)c2[nH]1 [Example 138, 3-[6-cyclopropyl-4-[4-fluoro-2-[5-(fluoromethyl)triazol-1-yl]phenyl]pyridin-2-yl]-6-[(2-methoxyethylamino)methyl]-5H-pyrrolo[3,2-d]pyrimidin-4-one]"
100 to 1000,< 100,"Cc1cc2ncn(-c3cc(-c4ccc(F)cc4-c4nncn4C)cc(C4CC4)n3)c(=O)c2[nH]1 [Example 124, 3-[6-cyclopropyl-4-[4-fluoro-2-(4-methyl-1,2,4-triazol-3-yl)phenyl]-pyridin-2-yl]-6-methyl-5H-pyrrolo[3,2-d]pyrimidin-4-one]"
< 100,< 100,"Cn1cnnc1-c1cc(F)ccc1-c1cc(C2CC2)nc(-n2cc(C(F)(F)F)c3cc[nH]c3c2=O)c1 [Example 141, 6-[6-cyclopropyl-4-[4-fluoro-2-(4-methyl-1,2,4-triazol-3-yl)phenyl]pyridin-2-yl]-4-(trifluoromethyl)-1H-pyrrolo[2,3-c]pyridin-7-one]"
100 to 1000,< 100,"Cc1ccnn1-c1cc(F)ccc1-c1cc(C2CC2)nc(-n2cc(C3CC3)c3cc(CNC4(C)CCC4)[nH]c3c2=O)c1 [Example 140, 4-cyclopropyl-6-[6-cyclopropyl-4-[4-fluoro-2-(5-methylpyrazol-1-yl)phenyl]pyridin-2-yl]-2-[[(1-methylcyclobutyl)amino]methyl]-1H-pyrrolo[2,3-c]pyridin-7-one]"
100 to 1000,< 100,"C[C@H]1CCCN(Cc2cc3c(C4CC4)cn(-c4cc(-c5ccc(F)cc5-c5ncnn5C)cc(C5CC5)n4)c(=O)c3[nH]2)C1 [Example 119, 4-Cyclopropyl-6-[6-cyclopropyl-4-[4-fluoro-2-(2-methyl-1,2,4-triazol-3-yl)phenyl]pyridin-2-yl]-2-[[(3S)-3-methylpiperidin-1-yl]methyl]-1H-pyrrolo[2,3-c]pyridin-7-one]"
< 100,< 100,"CO[C@@H](C)CNCc1cc2ncn(-c3cc(-c4ccc(C#N)cc4-n4nncc4CF)cc(C4CC4)n3)c(=O)c2[nH]1 [Example 139, 4-[2-(2-{[(S)-2-methoxypropylamino]methyl}-7-oxo-1,6-dihydro-1,4,6-triaza-6-indenyl)-6-cyclopropyl-4-pyridyl]-3-[5-(fluoromethyl)-1H-1,2,3-triazol-1-yl]benzonitrile]"

# The remaining lines, values behind:
Structure (SMILES),EC50 [1] [nM],IC50 [2] [nM]
"Cn1cnnc1-c1cc(F)ccc1-c1cc(C2CC2)nc(-n2cc(C(F)(F)F)c3nc(CC4CCCCC4)[nH]c3c2=O)c1 [Example 43, 2-(Cyclohexylmethyl)-5-{6-cyclopropyl-4-[4-fluoro-2-(4-methyl-4H-1,2,4-triazol-3-yl)phenyl]-2-pyridyl}-7-(trifluoromethyl)-3,5-dihydro-1,3,5-triaza-4-indenone]",< 100,< 100
"O=c1c2[nH]c(CN[C@H]3CCC[C@H]3O)cc2c(C2CC2)cn1-c1cc(F)cc(-c2ccc(F)cc2-c2nncn2C(F)F)c1 [Example 70, 2-{[(1S,2R)-2-hydroxycyclopentylamino]methyl}-4-cyclopropyl-6-{2′-[4-(difluoromethyl)-4H-1,2,4-triazol-3-yl]-4′,5-difluoro-3-biphenylyl}-1,6-dihydro-1,6-diaza-7-indenone]",< 100,< 100
"Cc1c[nH]nc1-c1cc(C#N)ccc1-c1cc(C2CC2)nc(-n2cc(C3CC3)c3cc(CN4CCC[C@H](C)C4)[nH]c3c2=O)c1 [Example 19, 4-[2-cyclopropyl-6-[4-cyclopropyl-2-[[(3S)-3-methylpiperidin-1-yl]methyl]-7-oxo-1H-pyrrolo[2,3-c]pyridin-6-yl]pyridin-4-yl]-3-(4-methyl-1H-pyrazol-3-yl)benzonitrile]",< 100,< 100
"Cn1cnnc1-c1cc(F)ccc1-c1cc(C2CC2)nc(-n2cnc3cc(CNC4(C)CCC4)[nH]c3c2=O)c1 [Example 29, 3-[6-cyclopropyl-4-[4-fluoro-2-(4-methyl-1,2,4-triazol-3-yl)phenyl]pyridin-2-yl]-6-[[(1-methylcyclobutyl)amino]methyl]-5H-pyrrolo[3,2-d]pyrimidin-4-one]",< 100,< 100
"Cc1c[nH]nc1-c1cc(C#N)ccc1-c1cc(C2CC2)nc(-n2cc(C3CC3)c3cc(CN4C[C@@H]5C[C@H]4CN5)[nH]c3c2=O)c1 [Example 18, 4-[2-cyclopropyl-6-[4-cyclopropyl-2-[[(1S,4S)-2,5-diazabicyclo[2.2.1]-heptan-2-yl]methyl]-7-oxo-1H-pyrrolo[2,3-c]pyridin-6-yl]pyridin-4-yl]-3-(4-methyl-1H-pyrazol-3-yl)benzonitrile]",1000 to 5000,< 100
"Cn1ccnc1-c1cc(F)ccc1-c1cc(C2CC2)nc(-n2cc(C3CC3)c3cc(CN[C@@H]4CCCOC4)[nH]c3c2=O)c1 [Example 57, 2-{[(R)-tetrahydro-2H-pyran-3-ylamino]methyl}-4-cyclopropyl-6-{6-cyclopropyl-4-[4-fluoro-2-(1-methyl-2-imidazolyl)phenyl]-2-pyridyl}-1,6-dihydro-1,6-diaza-7-indenone]",< 100,< 100
"Cc1cc(-c2ccc(C#N)cc2-c2nccn2C)cc(-n2cc(C3CC3)c3cc(CN4CCC[C@H](C)C4)[nH]c3c2=O)n1 [Example 81, 4-[2-(2-{[(S)-3-methyl-1-piperidyl]methyl}-4-cyclopropyl-7-oxo-1,6-dihydro-1,6-diaza-6-indenyl)-6-methyl-4-pyridyl]-3-(1-methyl-2-imidazolyl)benzonitrile]",< 100,< 100
"Cn1ccnc1-c1cc(F)ccc1-c1cc(C2CC2)nc(-n2cc(C3CC3)c3cc(CNC4(CO)CCC4)[nH]c3c2=O)c1 [Example 53, 4-cyclopropyl-6-{6-cyclopropyl-4-[4-fluoro-2-(1-methyl-2-imidazolyl)phenyl]-2-pyridyl}-2-{[1-(hydroxymethyl)cyclobutylamino]methyl}-1,6-dihydro-1,6-diaza-7-indenone]",< 100,< 100
"C[C@@H]1CN(Cc2cc3c(C4CC4)cn(-c4cc(-c5ccc(F)cc5-c5nccn5C)cc(C5CC5)n4)c(=O)c3[nH]2)CCO1 [Example 54, 2-{[(R)-2-methyl-4-morpholinyl]methyl}-4-cyclopropyl-6-{6-cyclopropyl-4-[4-fluoro-2-(1-methyl-2-imidazolyl)phenyl]-2-pyridyl}-1,6-dihydro-1,6-diaza-7-indenone]",< 100,< 100
"CC1(NCc2cc3ncn(-c4cc(-c5ccc(F)cc5-n5nccc5C(F)(F)F)cc(C5CC5)n4)c(=O)c3[nH]2)CCC1 [Example 105, 3-[6-cyclopropyl-4-[4-fluoro-2-[5-(trifluoromethyl)pyrazol-1-yl]phenyl]pyridin-2-yl]-6-[[(1-methylcyclobutyl)amino]methyl]-5H-pyrrolo[3,2-d]pyrimidin-4-one]",100 to 1000,< 100
"COC1CN(Cc2cc3ncn(-c4cc(-c5ccc(F)cc5-c5nc(C#N)cn5C)cc(C5CC5)n4)c(=O)c3[nH]2)C1 [Example 109, 2-[2-(6-cyclopropyl-2-{2-[(3-methoxy-1-azetidinyl)methyl]-7-oxo-1,6-dihydro-1,4,6-triaza-6-indenyl}-4-pyridyl)-5-fluorophenyl]-1-methyl-4-imidazolecarbonitrile]",100 to 1000,< 100
"COCCNCc1cc2ncn(-c3cc(-c4ccc(F)cc4-c4nc(C#N)cn4C)cc(C4CC4)n3)c(=O)c2[nH]1 [Example 107, 2-[2-[2-cyclopropyl-6-[6-[(2-methoxyethylamino)methyl]-4-oxo-5H-pyrrolo[3,2-d]pyrimidin-3-yl]pyridin-4-yl]-5-fluorophenyl]-1-methylimidazole-4-carbonitrile]",< 100,< 100
"COCCNCc1cc2ncn(-c3cc(-c4ccc(F)cc4-c4nncn4C)cc(C4CC4)n3)c(=O)c2[nH]1 [Example 28, 3-[6-cyclopropyl-4-[4-fluoro-2-(4-methyl-1,2,4-triazol-3-yl)phenyl]pyridin-2-yl]-6-[(2-methoxyethylamino)methyl]-5H-pyrrolo[3,2-d]pyrimidin-4-one]",< 100,< 100
"Cn1cnnc1-c1cc(F)ccc1-c1cc(C2CC2)nc(-n2cc(C(F)(F)F)c3nc(C4CCC4)[nH]c3c2=O)c1 [Example 40, 2-Cyclobutyl-5-[6-cyclopropyl-4-[4-fluoro-2-(4-methyl-1,2,4-triazol-3-yl)phenyl]pyridin-2-yl]-7-(trifluoromethyl)-3H-imidazo[4,5-c]pyridin-4-one]",< 100,< 100
"Cn1cc(C(F)(F)F)nc1-c1cc(C#N)ccc1-c1cc(C2CC2)nc(-n2cc(C3CC3)c3cc(CNC4(C)CCC4)[nH]c3c2=O)c1 [Example 67, 4-(6-cyclopropyl-2-{4-cyclopropyl-2-[(1-methylcyclobutylamino)methyl]-7-oxo-1,6-dihydro-1,6-diaza-6-indenyl}-4-pyridyl)-3-[1-methyl-4-(trifluoromethyl)-2-imidazolyl]benzonitrile]",100 to 1000,< 100
